The record followed here is patent US4209426A, “Polypeptides related to somatostatin” (American Home Products Corporation, priority 1979, dated 1980).

Type in all cases: in vivo
The subject of experiment [1] is growth hormone (GH). Description: Arginine-stimulated growth hormone secretion in Nembutal-anesthetized rats, radioimmunoassay of blood. The conditions noted are these: for GH: albino male rats; for dose effective for reducing secretion of growth hormone, glucagon, and insulin levels: rats, subcutaneous, summary statement covering GH. The procedure:
(§1) The biological activity of the products of the preceding preparatory examples were determined by the following procedure:
(§2) Albino male rats were administered Nembutal intraperitoneally at a dose of 50 milligrams per kilogram. Fifteen minutes later a subcutaneous injection of the test compound of physiological saline was administered. Ten minutes later 0.5 milliliters of arginine (300 milligrams per milliliter, pH 7.2) is injected into the heart. Five minutes after receipt of the arginine the rats are decapitated and blood is collected into trasylol-EDTA. An appropriate aliquot was assayed for growth hormone (GH), insulin and glucagon by radio immunoassay.

Experiment [2] has as its system insulin. Put plainly: Arginine-stimulated insulin secretion in Nembutal-anesthetized rats, radioimmunoassay of blood. To be noted: albino male rats. The procedure: as §1, §2
Experiment [3] concerns glucagon. Put plainly: Arginine-stimulated glucagon secretion in Nembutal-anesthetized rats, radioimmunoassay of blood. To be noted: for GLUN: albino male rats; for dose with selectivity of action toward glucagon: rats, subcutaneous, summary statement. The procedure:
as §1, §2

Setting [4] is: 200 μg/kg subcutaneous, blood 15 min after compound (5 min after arginine), control 268 ± 46 (Example 2), 407 ± 62 (Example 3).
Setting [5] is: 200 μg/kg subcutaneous, blood 15 min after compound, control 323 ± 28 (Example 2), 271 ± 44 (Example 3).
[6] abbreviates: 200 μg/kg subcutaneous, blood 15 min after compound, control 379 ± 109 (Example 2), 46 ± 72 (Example 3).

SMILES strings stand for the structures. Structures can show the parent of a compound that is named as a salt. Bridge positions count the residues as written; N and C are the ends. Square brackets hold non-standard residues; d marks the D form. Peptide text beside a SMILES is read from it.

As to `C[C@@H](O)[C@@H]1NC(=O)[C@H](Cc2ccccc2)NC(=O)[C@H]([C@@H](C)O)NC(=O)[C@H](CCCCN)NC(=O)[C@@H](Cc2c[nH]c3ccccc23)NC(=O)[C@H](Cc2ccccc2)NC(=O)[C@H](Cc2ccccc2)NC(=O)[C@H](Cc2ccc(O)cc2)NC(=O)[C@H](CCCNC(=N)N)NC(=O)[C@@H](N)CSSC[C@@H](C(=O)O)NC(=O)[C@H](CO)NC1=O` [Example 3, L-Cysteinyl-L-arginyl-L-tyrosyl-L-phenylalanyl-L-phenylalanyl-D-tryptophyl-L-lysyl-L-threonyl-L-phenylalanyl-L-threonyl-L-seryl-L-cysteine cyclic (1-12) disulfide triacetate salt] (H-CRYFF[dW]KTFTSC-OH; disulfide 1-12), the GH in experiment [1] (10 μg/kg subcutaneous, control 335 ± 33) was 207 ± 29 ng/mL; in experiment [1] (50 μg/kg subcutaneous, control 202 ± 11), 80 ± 16 ng/mL; in experiment [1] (setting [4]), 101 ± 24 ng/mL. Moreover, in experiment [1], the “dose effective for reducing secretion of growth hormone, glucagon, and insulin levels” value was no more than 50 micrograms per kilogram. Further, the INS was determined as 278 ± 36 μU/ml in experiment [2] (10 μg/kg subcutaneous, control 309 ± 31); 85 ±14 μU/ml in experiment [2] (50 μg/kg subcutaneous, control 238 ± 23); 59 ± 16 μU/ml in experiment [2] (setting [5]). Moreover, the GLUN came to 12 ± 4 pg/mL in experiment [3] (10 μg/kg subcutaneous, control 52 ± 10); 12 ± 4 pg/mL in experiment [3] (50 μg/kg subcutaneous, control 86 ± 6); 13 ± 3 pg/mL in experiment [3] (setting [6]). Moreover, in experiment [3], the “dose with selectivity of action toward glucagon” value was no more than 10 micrograms per kilogram.

Regarding `C[C@@H](O)[C@@H]1NC(=O)[C@H](Cc2ccccc2)NC(=O)[C@H]([C@@H](C)O)NC(=O)[C@H](CCCCN)NC(=O)[C@@H](Cc2c[nH]c3ccccc23)NC(=O)[C@H](Cc2ccccc2)NC(=O)[C@H](Cc2ccccc2)NC(=O)[C@H](Cc2ccc(O)cc2)NC(=O)[C@H](Cc2c[nH]cn2)NC(=O)[C@@H](N)CSSC[C@@H](C(=O)O)NC(=O)[C@H](CO)NC1=O` [Example 2, L-Cysteinyl-L-histidyl-L-tyrosyl-L-phenylalanyl-L-phenylalanyl-D-tryptophyl-L-lysyl-L-threonyl-L-phenylalanyl-L-threonyl-L-seryl-L-cysteine cyclic (1-12) disulfide diacetate salt] (H-CHYFF[dW]KTFTSC-OH; disulfide 1-12), the GH in experiment [1] (setting [4]) worked out at 68 ± 14 ng/mL. Moreover, the “dose effective for reducing secretion of growth hormone, glucagon, and insulin levels” value in experiment [1] is on record as no more than 50 micrograms per kilogram. In experiment [2] (setting [5]), the INS was determined as 254 ± 38 μU/ml. For the same molecule, in experiment [3] (setting [6]), the GLUN is 58 ± 24 pg/mL. In addition, the “dose with selectivity of action toward glucagon” value in experiment [3] is given as no more than 10 micrograms per kilogram.
